Experimental data reported in patent US20160271063A1, “STERILE S-ADENOSYL METHIONINE WITH A HIGH CONTENT OF ACTIVE ISOMER FOR INJECTABLE SOLUTIONS, AND PROCEDURE FOR OBTAINING IT” (GNOSIS S.P.A., priority 2013, published 2016).
Entries after “also recorded” stand apart in the source; their conditions may differ.

Columns and labels:
[1] = Residual humidity of the powder; format: physicochemical; conditions: for Humidity %: Test in Mobile Minor unit, IN/OUT temperature differs per test
[2] = S,S isomer content by HPLC (area of active isomer to sum of both isomers); format: physicochemical; conditions: for S,S Stereoisomer %: Test in Mobile Minor unit, IN/OUT temperature differs per test; for enantiomeric excess of S,S isomer: sterile spray-dried product
Procedure: The S-adenosyl methionine of the invention preferably has a water content below 2% by weight and an active enantiomer content exceeding 75% of the total SAMe. The enantiomer content is determined by the percentage of the area of active isomer to the sum of the area of both isomers in the HPLC analysis.

[3] = Particle size (laser particle-size distribution analysis); format: physicochemical; conditions: for Particle size D50μ: Test in Mobile Minor unit, IN/OUT temperature differs per test
[4] = Stability of SAMe salt solutions; format: physicochemical
[5] = sterile spray-dried product
[6] = BET surface area; format: physicochemical
[7] = Microscope appearance of particles; format: physicochemical
[8] = spray-dried, TIN 150° C., TOUT 95-96° C.
[9] = Table 2, comparison with the medicament on the market

Structure (SMILES) | Humidity % [1] [%] | S,S Stereoisomer % [2] [%] | Particle size D50μ [3] [μ] | endotoxin level [5] | enantiomeric excess of S,S isomer [2] | also measured
C[S+](CC[C@H](N)C(=O)[O-])C[C@H]1O[C@@H](n2cnc3c(N)ncnc32)[C@H](O)[C@@H]1O.O=S(=O)(O)CCCCS(=O)(=O)O (single isomer, unassigned) [Example 7, SAMe 1,4-butanedisulphonate, reference compound] | 2.65 | 75.95 | 10 |  |  | enantiomeric ratio, S,S isomer [2]: 70%
C[S+](CC[C@H](N)C(=O)[O-])C[C@H]1O[C@@H](n2cnc3c(N)ncnc32)[C@H](O)[C@@H]1O.O=S(=O)(O)CCCCS(=O)(=O)O (some centres unmarked) [Example 1, SAMe 1,4-butanedisulphonate] |  |  |  |  |  | residual humidity [1, 8]: 1.50%; stereoisomeric ratio [2, 8]: 73.77%; particle size D50 [3, 8]: 10 microns
C[S+](CC[C@H](N)C(=O)[O-])C[C@H]1O[C@@H](n2cnc3c(N)ncnc32)[C@H](O)[C@@H]1O (some centres unmarked) [SAMe SD4, S-adenosyl methionine] |  |  |  |  |  | stability of the solution ([4]; at ambient temperature): break down rapidly; stability of the solution ([4]; stored at a cold temperature, unless microbial contamination is present): stable
C[S+](CC[C@H](N)C(=O)[O-])C[C@H]1O[C@@H](n2cnc3c(N)ncnc32)[C@H](O)[C@@H]1O.O=S(=O)(O)CCCCS(=O)(=O)O (single isomer, unassigned) [Example 4, SAMe 1,4-butanedisulphonate] | 1.63 | 72.60 | 8 | less than 0.118 U/g | exceeding 80% | 
C[S+](CC[C@H](N)C(=O)[O-])C[C@H]1O[C@@H](n2cnc3c(N)ncnc32)[C@H](O)[C@@H]1O.O=S(=O)(O)CCCCS(=O)(=O)O (single isomer, unassigned) [Example 3, SAMe 1,4-butanedisulphonate] | 1.63 | 75.65 | 9 | less than 0.118 U/g | exceeding 80% | 
C[S+](CC[C@H](N)C(=O)[O-])C[C@H]1O[C@@H](n2cnc3c(N)ncnc32)[C@H](O)[C@@H]1O.O=S(=O)(O)CCCCS(=O)(=O)O (single isomer, unassigned) [Example 5, SAMe 1,4-butanedisulphonate] | 1.88 | 76.63 | 9 |  |  | Humidity [1, 9]: 1.20%; BET surface area (m2/g) [6]: 0.3460 m2/g; SS isomer (%) [2, 9]: 73.1%; Laser particle-size distribution analysis, 10% ([3]; 10%): 10% = 14.4 micron; Laser particle-size distribution analysis, 50% ([3]; 50%): 50% = 28.7 micron; Laser particle-size distribution analysis, 90% ([3]; 90%): 90% = 53.8 micron; Microscope [7]: Regular,; also recorded: spherical particles
